{
  "source": "patent US20030219400A1",
  "about": "(priority 2002, published 2003)",
  "key": {"PLDS patients": {"tested_on": "PLDS patients", "assay_type": "in vivo, human", "method": "An orally administered checklist monitored symptoms; sequential VCS testing was performed. […] No antibiotics or other therapeutic interventions were administered during the study. Diagnostic parameters used by referring physicians included a history of erythema chronicum migrans (ECM) rash, ELISA assay, Borrelia burgdorferi Western blot, LUAT assay, PCR, CSF antibodies to B. burgdorferi and culture. Patients with a clinical diagnosis of PLDS but without a positive serologic test were included at the discretion of the attending physician."}, "[1]": {"tested_on": "macrophage release of pro-inflammatory cytokines, including TNF and IL1B", "settings": "intraventricular instillation; cited from earlier work"}, "SBS patients": {"tested_on": "SBS patients", "settings": "human, in vivo"}},
  "data": [
    {"compound": "CCc1ccc(CCOc2ccc(CC3SC(=O)NC3=O)cc2)nc1", "note": "(stereo not shown) [pioglitazone]", "values": [
      {"measurement": "adverse effects from pioglitazone, including hypoglycemia or abnormal liver function tests", "setting": "PLDS patients; 45 mg daily for 10 days", "result": "No patients had adverse effects"},
      {"measurement": "patients with significant intensification of symptoms, not severe enough to stop treatment", "setting": "PLDS patients; of 241 patients receiving pioglitazone, CSM added on day 6", "result": 5, "unit": "patients"}
    ]},
    {"compound": "Ser-Tyr-Ser-Met-Glu-His-Phe-Arg-Trp-Gly-Lys-Pro-Val [αMSH]", "values": [
      {"measurement": "macrophage release of pro-inflammatory cytokines, including TNF and IL1B", "setting": "[1]", "result": "down-regulation of macrophage release of pro-inflammatory cytokines"}
    ]},
    {"compound": "cholestyramine [CSM]", "values": [
      {"measurement": "other complications of therapy", "setting": "SBS patients", "result": "No other significant complications of therapy were noted"}
    ]}
  ]
}
